The subject of experiment [1] is TAPL E664Q mutant. The experiment is described as follows: Dithionite-based flip-flop assay, E664Q proteoliposomes. As to conditions: for NBD*-PS fluorescence intensity (net percentage transported): E664Q. It counts as biochemical, mouse. The procedure: (§1) All lipids used in reconstitution were purchased from Avanti Polar Lipids, Inc. (purity > 99%). The in vitro flip–flop assay was performed using NBD* dye-labeled proteoliposomes as described previously. Briefly, E. coli polar lipids and egg PC were mixed in a 1:1 molar ratio, and 0.5% (mol/mol) NBD*-lipid was added. The lipid mixture was then dried under nitrogen gas. The NBD*-lipids used were 18:1-06:0 NBD*-PS (1-oleoyl-2-{6-[(7-nitro-2-1,3-benzoxadiazol-4-yl)amino]hexanoyl}-sn-glycero-3-phosphoserine), 18:1-06:0 NBD*-PC (1-oleoyl-2-{6-[(7-nitro-2-1,3-benzoxadiazol-4-yl)amino]hexanoyl}-sn-glycero-3-phosphocholine), 18:1-06:0 NBD*-PG (1-oleoyl-2-{6-[(7-nitro-2-1,3-benzoxadiazol-4-yl)amino]hexanoyl}-sn-glycero-3-[phospho-rac-(1-glycerol)]), 18:1-06:0 NBD*-PE (1-oleoyl-2-{6-[(7-nitro-2-1,3-benzoxadiazol-4-yl)amino]hexanoyl}-sn-glycero-3-phosphoethanolamine), and 25-NBD*-Cholesterol (25-[N-[(7-nitro-2-1,3-benzoxadiazol-4-yl)methyl]amino]−27-norcholesterol). Thin lipid films were solubilized in 20 mM HEPES–NaOH pH 8.0, 200 mM NaCl and 5% (v/v) glycerol, incubated at RT for 30 min and subjected to 5 freeze–thaw cycles. After extrusion with a Mini-Extruder at 65 °C, final lipid concentrations were determined by phosphorus assays. Briefly, 10 μL of extruded lipid was added to 10 μL of 2% (w/v) ammonium molybdate and 300 μL of concentrated perchloric acid. The mixture was heated at 250 °C for 30 min, then cooled to RT and mixed with 1.5 mL of 0.4% (w/v) ammonium molybdate and 250 μL of 9% (w/v) L-ascorbic acid. It was again heated at 100 °C for 6 min and cooled to RT. Lipid concentrations were calculated from the absorbance at 820 nm using a standard curve prepared with NaH2PO4 solution. After accurately determining the lipid concentration, DM-purified protein and 5 mM lipid suspension (solubilized in 5 mM DM) were mixed 1:25 (w/w). […]
(§2) To measure the flip–flop activity, 10 μL of 2 mM NBD*-labeled proteoliposomes were added to 100 μL of reaction buffer (20 mM HEPES–NaOH pH 8.0, 200 mM NaCl, 5 mM ATP and 5% (v/v) glycerol) in the presence of 2 mM MgCl2 (or NaCl), and incubated at 37 °C for 1 h. The mixture was transferred to a 96-well plate and time-dependent fluorescence (λex/λem = 460/538 nm) was recorded every 30 s for 26 min using a fluorescence spectrophotometer (Gemini XPS). After the baseline fluorescence had stabilized, 10 mM sodium dithionite was added to quench the fluorescence of NBD*-lipid present in the outer leaflets of the liposomes. The initial rapid drop and subsequent slow decline in fluorescence intensity were monitored. […] The net percentage of NBD*-lipid translocated across the lipid bilayer was calculated from the following equation[72]: the percentage of protected NBD*-lipid in the inner leaflet = [(FD−F0)/(FT−F0)]×100, and that of accessible NBD*-lipid in the outer leaflet = [(FT−FD)/(FT−F0)]×100, where FT is the total fluorescence of the sample before the addition of dithionite, FD is the fluorescence of the sample after quenching with dithionite, and F0 is any residual fluorescence of the sample after solubilization with Triton X-100. Fluorescence values (FT, FD, F0) were calculated as the averages of 5 points on the respective plateau lines. The ΔTMD0-mediated lipid floppase activity was determined by subtracting the percentage of NBD*-lipid fluorescence measured in the presence of Na^+/ATP from that measured in the presence of Mg^2+/ATP.

For experiment [2], the target named is T1, TAPL Y405A mutant (Mus musculus, UniProt Q9JJ59, Y405A).
T1 construct: thrombin cleavage site (C); eGFP (C); 10XHis (C); made in house; host or cells: Trichoplusia ni High Five (Hi5) insect cells, baculovirus (pVL1393)
T1 sequence (Q9JJ59 143-762 Y405A): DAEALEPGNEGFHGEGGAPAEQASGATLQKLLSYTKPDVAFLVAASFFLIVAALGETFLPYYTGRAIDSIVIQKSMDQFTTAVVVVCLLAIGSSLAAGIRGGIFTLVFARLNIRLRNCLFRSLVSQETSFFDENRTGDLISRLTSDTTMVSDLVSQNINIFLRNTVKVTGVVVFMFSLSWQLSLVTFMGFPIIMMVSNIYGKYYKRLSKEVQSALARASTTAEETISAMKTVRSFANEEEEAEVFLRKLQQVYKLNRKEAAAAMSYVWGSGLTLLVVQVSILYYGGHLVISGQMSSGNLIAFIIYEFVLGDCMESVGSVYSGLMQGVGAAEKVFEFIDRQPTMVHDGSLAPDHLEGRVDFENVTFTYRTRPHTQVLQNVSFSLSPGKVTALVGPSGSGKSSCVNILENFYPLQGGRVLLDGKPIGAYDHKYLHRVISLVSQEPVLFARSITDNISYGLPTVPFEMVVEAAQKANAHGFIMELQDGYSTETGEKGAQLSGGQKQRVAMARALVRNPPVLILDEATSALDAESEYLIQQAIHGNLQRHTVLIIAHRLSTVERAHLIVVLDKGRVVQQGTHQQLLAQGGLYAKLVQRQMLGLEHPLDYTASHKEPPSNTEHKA
The experiment is described as follows: Dithionite-based flip-flop assay, Y405A proteoliposomes. The experiment is classed as biochemical. As to the method: as §1, with “The mixture was heated at 250 °C for 30 min, then cooled to RT and mixed with 1.5 mL of 0.4% (w/v) ammonium molybdate and 250 μL of 9% (w/v) L-ascorbic acid. It was again heated at 100 °C for 6 min and cooled to RT.” left out, “solution.” for “solution. After accurately determining the lipid concentration, DM-purified protein and 5 mM lipid suspension (solubilized in 5 mM DM) were mixed 1:25 (w/w).”
as §2, with “Fluorescence values (FT, FD, F0) were calculated as the averages of 5 points on the respective plateau lines. The ΔTMD0-mediated lipid floppase activity was determined by subtracting the percentage of NBD*-lipid fluorescence measured in the presence of Na^+/ATP from that measured in the presence of Mg^2+/ATP.” left out

For `CCCCCCCC/C=C\CCCCCCCC(=O)OC[C@H](COP(=O)(O)OC[C@H](N)C(=O)O)OC(=O)CCCCCNc1ccc([N+](=O)[O-])c2nonc12` [NBD*-PS, 1-oleoyl-2-{6-[(7-nitro-2-1,3-benzoxadiazol-4-yl)amino]hexanoyl}-sn-glycero-3-phosphoserine], the “NBD*-PS fluorescence intensity (net percentage transported)” value in experiment [1] (Mg2+/ATP minus Na+/ATP, no peptide, no POPS, mean n=3) came out at 1.892%; in experiment [1] (replicate I), 1.638%; in experiment [1] (replicate II), 1.974%; in experiment [1] (replicate III), 2.062%; in experiment [2] (replicate I), 1.636%; in experiment [2] (replicate II) it was 1.459%. Besides, the “NBD*-PS fluorescence intensity (net percentage transported)” value in experiment [2] (replicate III) is 1.571%. In addition, the “movement of NBD*-PS to the inner leaflet” value in experiment [1] (catalytically inactive E664Q mutant) was ~ 1.9%. Further, in experiment [2] (Mg2+/ATP minus Na+/ATP, mean n=3), the “NBD*-PS fluorescence intensity (net percentage transported outer to inner leaflet)” value came out at 1.556%.

The values are drawn from publication PMC9532399, “The lysosomal transporter TAPL has a dual role as peptide translocator and phosphatidylserine floppase” (Nature Communications, 2022).
